Measurements reported in patent US8022051B2, “Composition for protection and improvement of skin, or reinforcing skin barrier function comprising phosphatidylserine” (Doosan Corporation, priority 2004, dated 2011).

Experiments:
[1] = system: skin keratinocyte cell line (HaCaT) and normal human keratinocytes; assay: Reduction of inflammatory response induced by ultraviolet irradiation in skin keratinocytes (ELISA of TNF-a, IL-6, IL-1alpha); type: cell-based; details: 25 mJ/cm^2 UVB; phosphatidylserine 20 and 40 μM, WY-14643 200 μM; 24 hours; FIG. 3
Procedure: In order to examine an inflammatory response-reducing effect of the phosphatidylserine of the invention in the skin keratinocyte, which response results from the ultraviolet irradiation, a following experiment was performed in accordance with a method disclosed in the literature (Stefan et. al., The Journal of Investigate Dermatology, 117, pp 1430-1436, 2001).
First, the skin keratinocyte cell line (HaCaT, a gift from Yonsei univeritym, Korea) was seeded to a 35 mm^2 of cell culture dish in an amount of 3×10^5 cells/dish and then cultured for a day. Next day, the culture medium was removed and the cell was washed with 1× phosphate-buffered saline (PBS), 700 μl of 1×PBS was added to each of the dishes, it was irradiated 25 mJ/cm^2 UVB and then PBS was removed. […] Next day, the culture medium was collected and then amounts of TNF-a and IL-6 which have been known as inflammatory cytokines were measured with an enzyme-linked immunosorbent assay (ELISA) method. In addition, in order to check that there occurred a similar inflammatory response reducing effect also in the normal human skin keratinocyte, an experiment was performed in the above-mentioned manner using normal human keratinocytes (a gift from Dong-guk University) instead of the HaCaT cell line and then an amount of IL-1alpha secreted to the culture medium was measured with the ELISA.

PPAR-a = molecular target: T1, PPAR-a (Homo sapiens, UniProt Q07869); assay: PPAR-a activation in HeLa cell line (PPRE-luciferase reporter); type: cell-based; details: 20 and 40 μM, eight hours; FIG. 7
T1 construct: expressed in transfected cells; host or cells: HeLa (KCLB No. 10002)
T1 sequence (Q07869 1-468): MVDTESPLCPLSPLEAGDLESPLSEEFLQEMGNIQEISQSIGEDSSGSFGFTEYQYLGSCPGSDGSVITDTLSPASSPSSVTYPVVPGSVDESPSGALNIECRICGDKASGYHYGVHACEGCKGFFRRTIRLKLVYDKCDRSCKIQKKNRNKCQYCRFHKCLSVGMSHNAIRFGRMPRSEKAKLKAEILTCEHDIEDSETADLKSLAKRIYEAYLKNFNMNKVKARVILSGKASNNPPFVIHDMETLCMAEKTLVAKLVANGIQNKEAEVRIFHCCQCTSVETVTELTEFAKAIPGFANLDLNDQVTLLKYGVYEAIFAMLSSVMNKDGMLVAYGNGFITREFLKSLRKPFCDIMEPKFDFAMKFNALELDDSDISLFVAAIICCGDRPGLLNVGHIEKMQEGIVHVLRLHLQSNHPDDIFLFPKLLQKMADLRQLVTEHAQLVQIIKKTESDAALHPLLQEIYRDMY
Procedure: In order to examine a PPAR-a activating effect of the phosphatidylserine of the invention, a following experiment was performed. At this time, it was examined activities for the PPAR-a and PPAR-γ retained.
First, a HeLa (Human epithelial carcinoma) (KCLB [Korean Cell Line Bank] No. 10002, Korea) was seeded to a 24-well plate in an amount of 2×10^4 cells/well and then cultured for a day. Next day, in order to perform a cell transfection, 200 ng of PPAR-a over-expression vector, 200 ng of PPRE (peculiar to PPAR-a)-luciferase reporter vector (Promega, USA), and 40 ng of renilla luciferase vector used as the control group in the cell (internal control, i.e., used to examine an transfection efficiency) were mixed in the OMEM (Gibco, USA) culture medium and subject to the transfection to the cell using the lipofectamin (Invitrogen, USA). After four hours, the culture medium was added to be 10% FBS and then cultured for one night. Next day, in order to measure an activity of PPAR-a, it was treated with 20 and 40 μM of phosphatidylserine and 400 μM of the clofibrate as the positive control group and then cultured for eight hours. An activity of the luciferase was measured with a luminometer using a dual luciferase assay system (Promega, USA). Also in case of PPAR-γ, the same process was performed to measure the activity. […]

[2] = system: skin keratinocytes (HaCaT); assay: Protection from ROS (hydrogen peroxide) in skin keratinocytes (MTT assay); type: cell-based; details: FIG. 8
Procedure: In order to measure an effect of protecting the skin from the ROS in the keratinocyte by the phosphatidylserine of the invention, a following experiment was performed.
First, the skin keratinocytes (HaCaT) were seeded to the 24-well plate in an amount of 5×10^4 cells/well. Next day, it was treated with 25 μM phosphatidylserine aqueous solution (Doosan Biotech, Korea) (phosphatidylserine-treated group), 100 μM vitamin C (ascorbic acid-treated group) and 100 μM vitamin E (a-tocopherol-treated group) as the positive control group and then cultured for 24 hours. Next day, it was treated with 1 mM hydrogen peroxide (H2O2) and then cultured for about 1˜1.5 hours. Then, a cell viability was examined with the MTT assay.

hairless mouse = assay: Skin barrier function restoration (TEWL) after tape stripping in hairless mice, oral administration; type: in vivo; details: 0.8 mg/mouse once a day for three weeks, up to 24 hours, compared to mouse not given phosphatidylserine, FIG. 9
Procedure: In this example 9, it was examined a difference of water loss restoration rates in a group to which the phosphatidylserine was administrated and a group to which the phosphatidylserine was not administrated, using the hairless mouse, so as to examine an effect of the phosphatidylserine on the skin barrier function restoring reinforcement.
First, a solution in which the phosphatidylserine (DS-PS, Doosan, Korea) was dispersed in a tertiary distilled water in a concentration of 400 mg/100 ml was used as a test material. It was prepared 10 hairless induced mice which were […] (Japan SLC Inc., Shizuoka, Japan). The solution was orally administrated to 5 mice of them in a dosage of 0.8 mg phosphatidylserine/mouse once a day and the tertiary distilled water was orally administrated to the other 5 mice. The medication period was three weeks. After that, it was measured a water evaporation loss for both sides of the backs of the hairless mice using a TEWL apparatus (TEWAMETER, TW210, Germany) (normal skin: about 10±2 g/hm^2). A Scotch tape was attached to the same positions and then cleared. […] After that, it was measured the water evaporation losses as time went by (i.e., before the injury, immediately after the injury, after 6 hours, after 9 hours and after 24 hours) to check the restoration rate of the skin barrier.

phosphatidylserine
inflammatory response increased due to the ultraviolet irradiation (TNF-a, IL-6, IL-1alpha amounts) [1]: considerably alleviated
activity of PPAR-a (luciferase) (PPAR-a): activated
protection effect from reactive oxygen species compared with the positive control material ([2]; phosphatidylserine 25 μM versus 100 μM positive controls): same protection effect with a smaller amount
protection effect from reactive oxygen species (cell viability, MTT) ([2]; phosphatidylserine 25 μM, vitamin C 100 μM, vitamin E 100 μM, 24 hours, then 1 mM H2O2 about 1-1.5 hours): exhibited the protection effect
restoration rate of the skin barrier function (TEWL) (hairless mouse): higher restoration rate
